ChEMBL document CHEMBL3045331, “A clubbed quinazolinone and 4-thiazolidinone as potential antimicrobial agents” (2012)
Converted amounts (≈) assume the structure as drawn.

Columns and labels:
Format in all cases: functional
[1] = system: Escherichia coli; experiment: Antibacterial activity against Escherichia coli MTCC 443 after 24 hr by serial broth dilution method; conditions: MTCC 443, 24 h
[2] = system: Aspergillus niger; experiment: Antifungal activity against Aspergillus niger MTCC 282 after 48 hr by spot subculture method; conditions: MTCC 282, 48 h
[3] = system: Candida albicans; experiment: Antifungal activity against Candida albicans MTCC 227 after 48 hr by spot subculture method; conditions: MTCC 227, 48 h
[4] = system: Streptococcus pyogenes; experiment: Antibacterial activity against Streptococcus pyogenes MTCC-442 after 24 hr by serial broth dilution method; conditions: MTCC-442, 24 h
[5] = system: Staphylococcus aureus; experiment: Antibacterial activity against Staphylococcus aureus MTCC-96 after 24 hr by serial broth dilution method; conditions: MTCC-96, 24 h
[6] = system: Pseudomonas aeruginosa; experiment: Antibacterial activity against Pseudomonas aeruginosa MTCC-1688 after 24 hr by serial broth dilution method; conditions: MTCC-1688, 24 h
[7] = system: Aspergillus clavatus; experiment: Antifungal activity against Aspergillus clavatus MTCC 1323 after 48 hr by spot subculture method; conditions: MTCC 1323, 48 h

Row | MIC99 [1] | MIC99 [2] | MIC99 [3] | MIC99 [4] | MIC99 [5] | MIC99 [6] | MIC99 [7] | SMILES
1 | 100 µg/mL (≈ 146 µM) | 1000 µg/mL (≈ 1460 µM) | 500 µg/mL (≈ 732 µM) | 500 µg/mL (≈ 732 µM) | 250 µg/mL (≈ 366 µM) | 200 µg/mL (≈ 293 µM) | 500 µg/mL (≈ 732 µM) | COc1ccc(/C=C2\SC(c3ccc(O)cc3)N(NC(=O)c3ccc(-n4c(-c5ccc(C)cc5)nc5ccccc5c4=O)cc3)C2=O)c(O)c1 (stereo not given)
2 | 50 µg/mL (≈ 70.9 µM) | 100 µg/mL (≈ 142 µM) | 500 µg/mL (≈ 709 µM) | 100 µg/mL (≈ 142 µM) | 100 µg/mL (≈ 142 µM) | 200 µg/mL (≈ 283 µM) | 1000 µg/mL (≈ 1420 µM) | Cc1ccc(-c2nc3ccccc3c(=O)n2-c2ccc(C(=O)NN3C(=O)/C(=C/c4c(Cl)cccc4Cl)SC3c3ccc(O)cc3)cc2)cc1 (stereo not given)
3 | 500 µg/mL (≈ 683 µM) | 1000 µg/mL (≈ 1370 µM) | 500 µg/mL (≈ 683 µM) | 100 µg/mL (≈ 137 µM) | 250 µg/mL (≈ 342 µM) | 500 µg/mL (≈ 683 µM) | 100 µg/mL (≈ 137 µM) | Cc1ccc(-c2nc3ccccc3c(=O)n2-c2ccc(C(=O)NN3C(=O)/C(=C/c4cc(Br)ccc4O)SC3c3ccc(O)cc3)cc2)cc1 (stereo not given)
4 | 100 µg/mL (≈ 153 µM) | 1000 µg/mL (≈ 1530 µM) | 1000 µg/mL (≈ 1530 µM) | 50 µg/mL (≈ 76.6 µM) | 100 µg/mL (≈ 153 µM) | 500 µg/mL (≈ 766 µM) | 100 µg/mL (≈ 153 µM) | Cc1ccc(-c2nc3ccccc3c(=O)n2-c2ccc(C(=O)NN3C(=O)/C(=C/c4ccc(O)cc4)SC3c3ccc(O)cc3)cc2)cc1 (stereo not given)
5 | 100 µg/mL (≈ 138 µM) | 100 µg/mL (≈ 138 µM) | 1000 µg/mL (≈ 1380 µM) | 200 µg/mL (≈ 275 µM) | 100 µg/mL (≈ 138 µM) | 100 µg/mL (≈ 138 µM) | 1000 µg/mL (≈ 1380 µM) | COc1cc(/C=C2\SC(c3ccc(O)cc3)N(NC(=O)c3ccc(-n4c(-c5ccc(C)cc5)nc5ccccc5c4=O)cc3)C2=O)cc(OC)c1OC (stereo not given)
6 | 25 µg/mL (≈ 36.8 µM) | 100 µg/mL (≈ 147 µM) | 1000 µg/mL (≈ 1470 µM) | 100 µg/mL (≈ 147 µM) | 1000 µg/mL (≈ 1470 µM) | 200 µg/mL (≈ 294 µM) | 500 µg/mL (≈ 736 µM) | Cc1ccc(-c2nc3ccccc3c(=O)n2-c2ccc(C(=O)NN3C(=O)/C(=C/c4ccc(N(C)C)cc4)SC3c3ccc(O)cc3)cc2)cc1 (stereo not given)
7 |  | 100 µg/mL (≈ 283 µM) | 500 µg/mL (≈ 1420 µM) |  |  |  | 100 µg/mL (≈ 283 µM) | COC1=CC(=O)C[C@@H](C)[C@]12Oc1c(Cl)c(OC)cc(OC)c1C2=O [GRISEOFULVIN]
8 | 500 µg/mL (≈ 750 µM) | 500 µg/mL (≈ 750 µM) | 500 µg/mL (≈ 750 µM) | 500 µg/mL (≈ 750 µM) | 100 µg/mL (≈ 150 µM) | 100 µg/mL (≈ 150 µM) | 500 µg/mL (≈ 750 µM) | COc1ccccc1/C=C1\SC(c2ccc(O)cc2)N(NC(=O)c2ccc(-n3c(-c4ccc(C)cc4)nc4ccccc4c3=O)cc2)C1=O (stereo not given)
9 | 500 µg/mL (≈ 764 µM) | 500 µg/mL (≈ 764 µM) | 100 µg/mL (≈ 153 µM) | 250 µg/mL (≈ 382 µM) | 100 µg/mL (≈ 153 µM) | 50 µg/mL (≈ 76.4 µM) | 1000 µg/mL (≈ 1530 µM) | Cc1ccc(-c2nc3ccccc3c(=O)n2-c2ccc(C(=O)NN3C(=O)/C(=C/c4ccc(F)cc4)SC3c3ccc(O)cc3)cc2)cc1 (stereo not given)
10 | 200 µg/mL (≈ 314 µM) | 1000 µg/mL (≈ 1570 µM) | 500 µg/mL (≈ 785 µM) | 100 µg/mL (≈ 157 µM) | 500 µg/mL (≈ 785 µM) | 500 µg/mL (≈ 785 µM) | 1000 µg/mL (≈ 1570 µM) | Cc1ccc(-c2nc3ccccc3c(=O)n2-c2ccc(C(=O)NN3C(=O)/C(=C/c4ccccc4)SC3c3ccc(O)cc3)cc2)cc1 (stereo not given)
11 | 100 µg/mL (≈ 150 µM) | 100 µg/mL (≈ 150 µM) | 1000 µg/mL (≈ 1500 µM) | 500 µg/mL (≈ 750 µM) | 500 µg/mL (≈ 750 µM) | 500 µg/mL (≈ 750 µM) | 100 µg/mL (≈ 150 µM) | COc1ccc(/C=C2\SC(c3ccc(O)cc3)N(NC(=O)c3ccc(-n4c(-c5ccc(C)cc5)nc5ccccc5c4=O)cc3)C2=O)cc1 (stereo not given)
12 | 100 µg/mL (≈ 286 µM) |  |  | 100 µg/mL (≈ 286 µM) | 250 µg/mL (≈ 715 µM) | 100 µg/mL (≈ 286 µM) |  | CC1(C)S[C@@H]2[C@H](NC(=O)[C@H](N)c3ccccc3)C(=O)N2[C@H]1C(=O)O [AMPICILLIN]
13 | 50 µg/mL (≈ 74.5 µM) | 1000 µg/mL (≈ 1490 µM) | 100 µg/mL (≈ 149 µM) | 500 µg/mL (≈ 745 µM) | 500 µg/mL (≈ 745 µM) | 100 µg/mL (≈ 149 µM) | 1000 µg/mL (≈ 1490 µM) | Cc1ccc(-c2nc3ccccc3c(=O)n2-c2ccc(C(=O)NN3C(=O)/C(=C/c4ccc(Cl)cc4)SC3c3ccc(O)cc3)cc2)cc1 (stereo not given)
14 | 200 µg/mL (≈ 298 µM) | 1000 µg/mL (≈ 1490 µM) | 1000 µg/mL (≈ 1490 µM) | 100 µg/mL (≈ 149 µM) | 500 µg/mL (≈ 745 µM) | 500 µg/mL (≈ 745 µM) | 1000 µg/mL (≈ 1490 µM) | Cc1ccc(-c2nc3ccccc3c(=O)n2-c2ccc(C(=O)NN3C(=O)/C(=C/c4ccccc4Cl)SC3c3ccc(O)cc3)cc2)cc1 (stereo not given)
15 | 100 µg/mL (≈ 142 µM) | 1000 µg/mL (≈ 1420 µM) | 100 µg/mL (≈ 142 µM) | 100 µg/mL (≈ 142 µM) | 100 µg/mL (≈ 142 µM) | 50 µg/mL (≈ 71.1 µM) | 100 µg/mL (≈ 142 µM) | Cc1ccc(-c2nc3ccccc3c(=O)n2-c2ccc(C(=O)NN3C(=O)/C(=C/c4ccc5ccccc5c4O)SC3c3ccc(O)cc3)cc2)cc1 (stereo not given)
16 | 25 µg/mL (≈ 36.7 µM) | 100 µg/mL (≈ 147 µM) | 100 µg/mL (≈ 147 µM) | 500 µg/mL (≈ 733 µM) | 50 µg/mL (≈ 73.3 µM) | 100 µg/mL (≈ 147 µM) | 500 µg/mL (≈ 733 µM) | Cc1ccc(-c2nc3ccccc3c(=O)n2-c2ccc(C(=O)NN3C(=O)/C(=C/c4cccc([N+](=O)[O-])c4)SC3c3ccc(O)cc3)cc2)cc1 (stereo not given)
